We go through 13 compounds from ChEMBL document CHEMBL1201862, “PubChem BioAssay data set” (2004).

Molecules are shown by their SMILES.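 96-well plates; 48 h exposure; 5 concentrations. Endpoints by linear interpolation between flanking doses. Not reached: highest tested concentration assigned. Here, GI50 denotes the concentration required for 50% inhibition of growth.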 Activity calls are given as the source filed them. Rule as the data show it: active = GI50 up to about 1.1 µM and inactive = higher. Some results are limits rather than exact numbers.

Among the test systems are COLO 205; DMS-114; ACHN; SK-MEL-28; 786-0; SK-MEL-5; SK-MEL-2; SW-620; SF-295; MOLT-4; RXF 393; IGROV-1; HCT-15; UACC-62; HCC 2998; UO-31; DU-145; MCF7; MDA-N; MDA-MB-231.
Common to all, as to experiment: NCI tumour cell line growth inhibition, 48 h

Consider `CC(N)Cc1ccc(C(=O)Cl)cc1` (configuration not stated), for which the GI50 with COLO 205, in the assay on DMS-114, in the assay on ACHN, in the assay on SK-MEL-28, in the assay on 786-0 and in the assay with SK-MEL-5 was > 100 µM (inactive) in each case. The GI50 in the assay on SK-MEL-2, in the assay with SW-620, with SF-295, with MOLT-4, in the assay with RXF 393 and in the assay on IGROV-1 was > 100 µM (inactive) each time. The GI50 in the assay with HCT-15 is greater than 100 µM; in the assay with UACC-62 it was > 100 µM (inactive); in the assay with HCC 2998 it was > 100 µM (inactive).

Take `OCCc1cnco1`: the GI50 in the assay on COLO 205, in the assay with DMS-114, in the assay on SK-MEL-28, with 786-0, in the assay with SK-MEL-5 and with SW-620 was > 100 µM (inactive) in each case. The GI50 with SF-295, with MOLT-4, with RXF 393, in the assay on IGROV-1, in the assay with UACC-62 and in the assay on HCC 2998 was > 100 µM (inactive) throughout.

With `COC1(OC)C2(Cl)C(Cl)=C(Cl)C1(Cl)C1C=CC=CC12` (configuration not stated), the GI50 was 69.8 µM (inactive) with COLO 205; 42.4 µM (inactive) in the assay with DMS-114; > 100 µM (inactive) in the assay on ACHN; > 100 µM (inactive) with SK-MEL-28; > 100 µM (inactive) in the assay with 786-0; 53.2 µM (inactive) in the assay with SK-MEL-5. For the same compound, the GI50 in the assay with SK-MEL-2 is 24.1 µM (inactive); with SW-620 it was 95.9 µM (inactive); in the assay on SF-295, > 100 µM (inactive); in the assay on RXF 393 it was 82.4 µM (inactive); with IGROV-1, > 100 µM (inactive); with HCT-15, 54.5 µM. Besides, the GI50 is 73.5 µM (inactive) with UACC-62, > 100 µM (inactive) in the assay with UO-31 and 65.2 µM (inactive) in the assay on HCC 2998.

Consider `O=C(O)CNc1c2ccccc2[n+]([O-])c2ccccc12`, for which the GI50 was 72.3 µM (inactive) with COLO 205; 47.9 µM (inactive) with DMS-114; 65.5 µM (inactive) in the assay on ACHN; 42.2 µM (inactive) in the assay with SK-MEL-28; > 100 µM (inactive) in the assay with 786-0; 45.5 µM (inactive) in the assay with SK-MEL-5. Moreover, the GI50 in the assay with SK-MEL-2 was > 100 µM (inactive); in the assay on SW-620, > 100 µM (inactive); in the assay on SF-295, > 100 µM (inactive); in the assay with MOLT-4, 69.3 µM (inactive); with IGROV-1 it was > 100 µM (inactive); in the assay with HCT-15, 72.1 µM. Also, the GI50 is 67.8 µM (inactive) in the assay on UACC-62, 43.4 µM (inactive) in the assay with UO-31 and > 100 µM (inactive) with HCC 2998.

For the compound `CN1C(=O)C2C3C=C4c5ccccc5N(c5ccccc5)C4(C2C1=O)[C@H]1C(=O)N(C)C(=O)[C@@H]31` (some centres not stated), the GI50 in the assay on COLO 205 was > 100 µM (inactive); with DMS-114 it was 66.4 µM (inactive); in the assay with ACHN, > 100 µM (inactive); in the assay on SK-MEL-28 it was > 100 µM (inactive); in the assay on 786-0, > 100 µM (inactive); in the assay with SK-MEL-2 it was > 100 µM (inactive). Also, the GI50 in the assay on SW-620, in the assay on SF-295, in the assay on MOLT-4, in the assay with UACC-62, in the assay on UO-31 and in the assay with HCC 2998 was > 100 µM (inactive) each time.

On to `CCn1c(SCc2nnc(Nc3ccccc3)s2)nc2ccccc2c1=O`, for which the GI50 in the assay on COLO 205 is 16.1 µM (inactive); in the assay on ACHN, 2.85 µM (inactive); in the assay with SK-MEL-28 it was 16.4 µM (inactive); in the assay with 786-0 it was 2.02 µM (inactive); in the assay with SK-MEL-5 it was 8.15 µM (inactive); in the assay on SK-MEL-2, 5.14 µM (inactive). The GI50 is 9.1 µM (inactive) with DU-145; 9.93 µM (inactive) in the assay on MCF7; 16.8 µM (inactive) in the assay on SW-620; 2.52 µM (inactive) in the assay with SF-295; 42.6 µM (inactive) in the assay on MOLT-4; 4.04 µM (inactive) in the assay with RXF 393. In addition, the GI50 in the assay with IGROV-1 was 3.62 µM (inactive); with HCT-15, 20.7 µM; in the assay with UACC-62, 3.3 µM (inactive); with MDA-N, 8.77 µM (inactive); with UO-31, 3.08 µM (inactive); with HCC 2998, 6.68 µM (inactive). Besides, the GI50 in the assay with MDA-MB-231 was 3.18 µM (inactive).

Take `O=C(O)C1C(C(=O)Nc2ccc3c(c2)Cc2ccccc2-3)C2(Cl)C(Cl)=C(Cl)C1(Cl)C2(Cl)Cl` (configuration not stated): the GI50 in the assay with COLO 205 is 17.6 µM (inactive); in the assay with ACHN, 30.3 µM (inactive); in the assay on SK-MEL-28, 21.5 µM (inactive); with 786-0 it was 30.3 µM (inactive); in the assay with SK-MEL-5 it was 14.2 µM (inactive); with SK-MEL-2, 19.1 µM (inactive). The GI50 was 31.1 µM (inactive) in the assay with DU-145; 22.5 µM (inactive) in the assay with MCF7; 25.6 µM (inactive) in the assay with SW-620; 39.1 µM (inactive) with SF-295; 11.6 µM (inactive) in the assay on MOLT-4; 20.5 µM (inactive) in the assay on RXF 393. In addition, the GI50 with IGROV-1 was 20 µM (inactive); with HCT-15, 21.5 µM; in the assay on UACC-62, 16.1 µM (inactive); in the assay on MDA-N it was 35.6 µM (inactive); in the assay with UO-31, 22.5 µM (inactive); with HCC 2998, 20.6 µM (inactive). The GI50 in the assay with MDA-MB-231 was 20.2 µM (inactive).

Turning to `C/C(=N/NC(=S)N1CCN(C(=S)N/N=C(/C)c2ccccn2)CC1)c1ccccn1`, the GI50 in the assay on COLO 205 is 4.16 µM (inactive); in the assay on ACHN, 2.52 µM (inactive); in the assay with SK-MEL-28, 14.3 µM (inactive); in the assay on 786-0, 6.87 µM (inactive); in the assay with SK-MEL-5, 6.97 µM (inactive); in the assay on SK-MEL-2 it was > 100 µM (inactive). Further, the GI50 in the assay on DU-145 is 5.86 µM (inactive); in the assay with MCF7, 5.24 µM (inactive); in the assay on SW-620, 7 µM (inactive); with SF-295, 6.25 µM (inactive); in the assay with MOLT-4, 4.79 µM (inactive); in the assay on RXF 393, 3.52 µM (inactive). Further, the GI50 with IGROV-1 was 17.7 µM (inactive); in the assay with HCT-15 it was 2.15 µM; in the assay on UACC-62, 6.71 µM (inactive); with MDA-N it was > 77.8 µM (inactive); with UO-31, 2.69 µM (inactive); with HCC 2998, 22.5 µM (inactive). The GI50 in the assay with MDA-MB-231 is 45.2 µM (inactive).

With `CCOC(=O)N1C(c2ccccc2)C=CC(c2ccccc2)N1C(=O)OCC` (configuration not stated), the GI50 in the assay on COLO 205, in the assay on DMS-114, with ACHN, in the assay on SK-MEL-28, with 786-0 and in the assay on SK-MEL-5 was > 100 µM (inactive) throughout. Moreover, the GI50 in the assay with SK-MEL-2 was > 100 µM (inactive); in the assay with SW-620, > 100 µM (inactive); in the assay on SF-295 it was > 100 µM (inactive); with RXF 393, > 100 µM (inactive); with IGROV-1, > 100 µM (inactive); in the assay with HCT-15 it was greater than 100 µM. For the same compound, the GI50 in the assay with UACC-62 is > 100 µM (inactive).

Regarding `COC1OC(CO)C(O)C(NC(=O)N(C)N=O)C1O` (configuration not stated), the GI50 in the assay with COLO 205, with DMS-114, in the assay on ACHN, in the assay on SK-MEL-28, with 786-0 and with SK-MEL-5 was > 100 µM (inactive) throughout. The GI50 in the assay with SK-MEL-2, in the assay with SW-620, in the assay with SF-295, with MOLT-4, in the assay on RXF 393 and in the assay with IGROV-1 was > 100 µM (inactive) each time. For the same compound, the GI50 is greater than 100 µM in the assay with HCT-15, > 100 µM (inactive) in the assay with UO-31 and > 100 µM (inactive) with HCC 2998.

In the case of `CCOC(=O)Cc1nn2c(=O)cc(C)nc2s1`, the GI50 in the assay on COLO 205, in the assay with ACHN, in the assay with SK-MEL-28, in the assay with 786-0, with SK-MEL-5 and in the assay on SK-MEL-2 was > 100 µM (inactive) each time. Further, the GI50 with DU-145, in the assay with MCF7, with SW-620, in the assay on SF-295, with MOLT-4 and with RXF 393 was > 100 µM (inactive) in each case. For the same compound, the GI50 was > 100 µM (inactive) in the assay with IGROV-1; greater than 100 µM with HCT-15; > 100 µM (inactive) in the assay with UACC-62; > 100 µM (inactive) in the assay on MDA-N; > 100 µM (inactive) in the assay on UO-31; > 100 µM (inactive) in the assay with HCC 2998. In the assay on MDA-MB-231, the GI50 is > 100 µM (inactive).

As to `CN(C)/C=N/c1ccc2nonc2c1`, the GI50 in the assay on COLO 205, with ACHN, with SK-MEL-28, in the assay on 786-0, in the assay on SK-MEL-5 and with SK-MEL-2 was > 100 µM (inactive) throughout. For the same compound, the GI50 with DU-145, in the assay with MCF7, in the assay with SW-620, in the assay on SF-295, in the assay on MOLT-4 and in the assay on RXF 393 was > 100 µM (inactive) in each case. Besides, the GI50 in the assay with IGROV-1 is > 100 µM (inactive); in the assay with HCT-15 it was greater than 100 µM; in the assay with UACC-62, > 100 µM (inactive); in the assay on MDA-N, > 100 µM (inactive); with UO-31, > 100 µM (inactive); in the assay on HCC 2998, > 100 µM (inactive). The GI50 in the assay on MDA-MB-231 was > 100 µM (inactive).

For `COC(=O)Cc1cc(=O)n2c3ccccc3n(C)c2c1C#N`, the GI50 in the assay with COLO 205 is > 100 µM (inactive); in the assay with DMS-114, > 100 µM (inactive); in the assay with ACHN it was > 100 µM (inactive); in the assay on SK-MEL-28 it was > 100 µM (inactive); in the assay on 786-0, > 100 µM (inactive); in the assay on SK-MEL-5 it was 52.2 µM (inactive). The GI50 in the assay with SK-MEL-2, in the assay on SW-620, in the assay with SF-295, in the assay with MOLT-4, in the assay on RXF 393 and with IGROV-1 was > 100 µM (inactive) in each case. Also, the GI50 in the assay with HCT-15 is greater than 100 µM; in the assay with UO-31, > 100 µM (inactive); in the assay with HCC 2998, > 100 µM (inactive).
